Measurements published in patent publication US10647686B2, “Substituted pyrimidines for preventing or treating cancer and inflammatory diseases” (KOREA RESEARCH INSTITUTE OF CHEMICAL TECHNOLOGY, priority 2016, dated 2020).
pIC50: −log10 of the molar value.

Legend:
[1] = biological target: DRAK2 (Homo sapiens (Human), UniProt O94768); assay: DRAK2 kinase activity inhibition (ADP-Glo, MRCL3 peptide substrate); format: biochemical
Protocol: (§1) DRAK1 and DRAK2 recombinant proteins were purchased from SignalChem Inc. To measure the kinase enzyme activity, the ADP-Glo™ kit provided by Promega Inc. was used. Buffer A used in the kinase reaction was composed of 60 mM Tris-Cl (pH 7.5), 30 mM MgCl2 and 0.15% BSA. Just before the experiment, 1 mM DTT was prepared by diluting 1 M solution and added thereto.
(§2) To measure the DRAK1 and DRAK2 activity, the substrate MRCL3 peptide and ATP were mixed with the enzymes. After an appropriate period of time, the reaction product ADP was quantitatively analyzed.
(§3) The buffer solution A was used to make a 3× substrate solution of 3× concentration so that the final concentrations of ATP and MRCL3 peptides were 1 uM, respectively, and 2.5 μl of each solution was dispensed into Optiplate 384 (perkin-elmer) microplate.
(§4) The final concentrations of ATP and MRCL3 peptide were made to be 1 uM respectively by using buffer A, followed by preparing a 3× substrate solution. The prepared substrate solution was distributed in Optiplate 384 (Perkin-Elmer) microplate (2.5 ul/well). Then, the compounds of Examples 1˜39 and the compounds of Comparative Examples 1-6, whose concentrations were tripled by the final concentration were distributed thereto (2.5 ul/well). Lastly, DRAK1 or DRAK2 enzyme solution, properly diluted by using buffer A, was added thereto (2.5 ul/well). Centrifugation was performed at 800 rpm for 1 minute, and then enzyme reaction was induced at 30° C.
(§5) 2 hours later, the enzyme reaction was terminated. To eliminate residual ATP, ADP-Glo™ reagent contained in ADP-Glo™ was added to each well at the concentration of 7.5 ul, which was the same amount as the sum of the previously added reagents, followed by centrifugation at the same RPM and time as the above. Additional reaction was induced at room temperature for 40 minutes. To convert the ADP produced by the kinase activity to ATP, 15 ul of kinase detection buffer was added to each well, followed by centrifugation. Five minutes after the centrifugation was completed, the luminescence value of the reaction product was determined using Envision, and the enzyme activity inhibition effect of the compound was measured. Then, IC50 of each compound was determined using Prism program.
(§6) The compounds of Example 1 and Example 19 were used as the experimental group and the compound of Comparative Example 6 was used as the control.
To evaluate DRAK2 inhibition activity of the compound represented by formula 1 according to the number of n, the experiment was performed with the compounds of Example 1, Example 19, Example 40, Comparative Example 7 and W Comparative Example 8 by the same manner as described in Experimental Example 1, leading to the measurement of IC50 to DRAK2.

[2] = biological target: DRAK1 (Homo sapiens (Human), UniProt Q9UEE5); assay: DRAK1 kinase activity inhibition (ADP-Glo, MRCL3 peptide substrate); format: biochemical
Chain of DRAK1 (Q9UEE5 whole entry): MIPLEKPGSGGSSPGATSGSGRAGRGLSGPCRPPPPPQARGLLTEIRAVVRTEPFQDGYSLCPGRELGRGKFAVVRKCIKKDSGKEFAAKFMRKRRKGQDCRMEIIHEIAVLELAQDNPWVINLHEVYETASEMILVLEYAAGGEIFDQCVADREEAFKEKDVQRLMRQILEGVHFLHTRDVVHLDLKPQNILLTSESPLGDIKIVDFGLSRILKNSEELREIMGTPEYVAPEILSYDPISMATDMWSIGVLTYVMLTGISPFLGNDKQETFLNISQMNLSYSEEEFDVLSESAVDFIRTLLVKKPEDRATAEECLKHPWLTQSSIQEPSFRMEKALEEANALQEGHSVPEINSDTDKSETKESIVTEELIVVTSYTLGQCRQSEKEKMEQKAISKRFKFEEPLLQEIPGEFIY
Protocol: as §1, §2, §3, §4, §5, §6

[3] = Table 3, recombinant enzyme, 1 uM ATP, 1 uM MRCL3 peptide, 30° C., 2 hours
[4] = Table 5, Experimental Example 3, according to the number of n
[5] = Table 4, Experimental Example 2, DRAK2 selectivity evaluation

Chain of DRAK2 (O94768 whole entry): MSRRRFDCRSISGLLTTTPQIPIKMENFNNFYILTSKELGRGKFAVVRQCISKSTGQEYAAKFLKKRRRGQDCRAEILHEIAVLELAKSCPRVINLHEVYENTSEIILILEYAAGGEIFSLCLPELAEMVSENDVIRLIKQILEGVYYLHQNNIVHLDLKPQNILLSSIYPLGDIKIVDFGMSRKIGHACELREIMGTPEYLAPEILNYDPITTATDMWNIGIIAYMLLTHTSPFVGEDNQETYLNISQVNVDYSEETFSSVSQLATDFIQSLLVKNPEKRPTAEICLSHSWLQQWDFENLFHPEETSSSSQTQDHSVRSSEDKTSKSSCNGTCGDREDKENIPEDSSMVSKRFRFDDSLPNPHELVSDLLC

Row | Compound | pIC50 [1, 3] | also measured
1 | COc1cnc(Nc2ccc(Cl)cc2)nc1NCCCN [Comparative Example 3, N4-(3-aminopropyl)-N2-(4-chlorophenyl)-5-methoxypyrimidine-2,4-diamine, reference compound] | 6.06 | –
2 | NCCNc1nc(Nc2ccc(Cl)cc2)ncc1Cl [Comparative Example 7, N4-(2-aminoethyl)-5-chloro-N2-(4-chlorophenyl)pyrimidine-2,4-diamine, reference compound] | – | pIC50 [1, 4]: 6.96
3 | Cc1cnc(Nc2ccc(Cl)cc2)nc1NCCN [Comparative Example 8, N4-(2-aminoethyl)-N2-(4-chlorophenyl)-5-methylpyrimidine-2,4-diamine, reference compound] | – | pIC50 [1, 4]: 6.85
4 | NCCCNc1nc(Nc2ccc3c(c2)CCCC3=O)ncc1Cl [Example 24, 6-(4-(3-aminopropylamino)-5-chloropyrimidine-2-ylamino)-3,4-dihydronaphthalene-1(2H)-one] | 7.72 | pIC50 [2, 3]: 6.64
5 | Cc1ccc(Nc2ncc(C)c(NCCCN)n2)cc1C [Example 37, N4-(3-aminopropyl)-N2-(3,4-dimethylphenyl)-5-methylpyrimidine-2,4-diamine] | 7.09 | –
6 | Cc1cnc(Nc2ccc(N3CCNCC3)cc2)nc1NCCCN [Example 29, N4-(3-aminopropyl)-5-methyl-N2-(4-(piperazine-1-yl)phenyl)pyrimidine-2,4-diamine] | 7.00 | –
7 | NCCCCNc1nc(Nc2cc(Cl)cc(Cl)c2)ncc1Cl [Example 41, N4-(4-n-aminobutyl)-N2-(3,5-dichlorophenyl)-5-chloropyrimidine-2,4-diamine] | 7.51 | –
8 | Cc1ccc(Nc2ncc(Cl)c(NCCCN)n2)cc1C [Example 14, N4-(3-aminopropyl)-5-chloro-N2-(3,4-dimethylphenyl)pyrimidine-2,4-diamine] | 7.43 | pIC50 [2, 3]: 6.66
9 | Cc1cnc(Nc2ccc(Br)c(C(F)(F)F)c2)nc1NCCCN [Example 32, N4-(3-aminopropyl)-N2-(4-bromo-3-(trifluoromethyl)phenyl)-5-methylpyrimidine-2,4-diamine] | 5.85 | –
10 | CC(C)c1ccc(Nc2ncc(Cl)c(NCCCN)n2)cc1 [Example 3, N4-(3-aminopropyl)-5-chloro-N2-(4-isopropylphenyl)pyrimidine-2,4-diamine] | 7.96 | pIC50 [2, 3]: 6.62
11 | NCCCCNc1nc(Nc2ccc(Cl)cc2)ncc1Cl [Example 40, N4-(4-n-aminobutyl)-N2-(4-chlorophenyl)-5-chloropyrimidine-2,4-diamine] | 7.33 | pIC50 [2, 3]: 6.32; pIC50 [1, 4]: 7.33; DRAK2 IC50 compared with Comparative Examples 7 and 8 (n is 0) ([1]; result in words, from Table 5): significantly lower IC50
12 | Cc1cnc(Nc2ccc(F)c(C(F)(F)F)c2)nc1NCCCN [Example 31, N4-(3-aminopropyl)-N2-(4-fluoro-3-(trifluoromethyl)phenyl)-5-methylpyrimidine-2,4-diamine] | 6.74 | –
13 | NCCCNc1nc(Nc2ccc(Br)c(C(F)(F)F)c2)ncc1Cl [Example 16, N4-(3-aminopropyl)-N2-(4-bromo-3-(trifluoromethyl)phenyl)-5-chloropyrimidine-2,4-diamine] | 7.47 | pIC50 [2, 3]: 6.13
14 | NCCCNc1nc(Nc2ccc(Cl)cc2)ncc1C(F)(F)F [Comparative Example 2, N4-(3-aminopropyl)-N2-(4-chlorophenyl)-5-(trifluoromethyl)pyrimidine-2,4-diamine, reference compound] | 6.92 | –
15 | Cc1cnc(Nc2ccc(F)cc2)nc1NCCCN [Example 28, N4-(3-aminopropyl)-N2-(4-fluorophenyl)-5-methylpyrimidine-2,4-diamine] | 6.72 | –
16 | Cc1cnc(Nc2ccc(S(=O)(=O)c3ccc([N+](=O)[O-])cc3)cc2)nc1NCCCN [Example 34, N4-(3-aminopropyl)-5-methyl-N2-(4-(4-nitrophenylsulfonyl)phenyl)pyrimidine-2,4-diamine] | 6.47 | –
17 | Cc1cnc(Nc2ccc3c(c2)OCCO3)nc1NCCCN [Example 36, N4-(3-aminopropyl)-N2-(2,3-dihydrobenzo[b][1,4]dioxin-6-yl)-5-methylpyrimidine-2,4-diamine] | 6.96 | –
18 | NCCCNc1nc(Nc2ccc(Cl)cc2)ncc1F [Comparative Example 1, N4-(3-aminopropyl)-N2-(4-chlorophenyl)-5-fluoropyrimidine-2,4-diamine, reference compound] | 6.52 | –
19 | Cc1ccc(Nc2ncc(C)c(NCCCN)n2)cc1Cl [Example 27, N4-(3-aminopropyl)-N2-(3-chloro-4-methylphenyl)-5-methylpyrimidine-2,4-diamine] | 7.01 | –

Further lines, with some results ahead:

Row | pIC50 [1, 3] | Compound | also measured
20 | 6.31 | Cc1cnc(Nc2ccc(Oc3ccccc3)cc2)nc1NCCCN [Example 33, N4-(3-aminopropyl)-5-methyl-N2-(4-phenoxyphenyl)pyrimidine-2,4-diamine] | –
21 | 6.49 | NCCCNc1nc(Nc2ccc(Cl)cc2)ncc1[N+](=O)[O-] [Comparative Example 5, N4-(3-aminopropyl)-N2-(4-chlorophenyl)-5-nitropyrimidine-2,4-diamine, reference compound] | –
22 | 7.80 | NCCCNc1nc(Nc2ccc3c(c2)OCO3)ncc1Cl [Example 20, N4-(3-aminopropyl)-N2-(benzo[d][1,3]dioxol-5-yl)-5-chloropyrimidine-2,4-diamine] | pIC50 [2, 3]: 6.46
23 | 7.25 | CCCCCCc1ccc(Nc2ncc(Cl)c(NCCCN)n2)cc1 [Example 12, N4-(3-aminopropyl)-5-chloro-N2-(4-hexylphenyl)pyrimidine-2,4-diamine] | pIC50 [2, 3]: 5.72
24 | 7.68 | NCCCNc1nc(Nc2ccc3c(c2)CCC3)ncc1Cl [Example 21, N4-(3-aminopropyl)-5-chloro-N2-(2,3-dihydro-1H-indene-5-yl)pyrimidine-2,4-diamine] | pIC50 [2, 3]: 6.66
25 | 7.57 | NCCCNc1nc(Nc2ccc(Cl)cc2)ncc1Br [Comparative Example 6, reference compound] | pIC50 [2, 3]: 7.40; pIC50 [2, 5]: 7.40; pIC50 [1, 5]: 7.57; DRAK2 selectivity (DRAK2 versus DRAK1) ([1]; result in words, from Table 4): displayed both DRAK1 and DRAK2 inhibition activity
26 | 7.46 | Cc1cnc(Nc2ccc(F)c(Cl)c2)nc1NCCCN [Example 38, N4-(3-aminopropyl)-N2-(3-chloro-4-fluorophenyl)-5-methylpyrimidine-2,4-diamine] | –
27 | 7.05 | Cc1cnc(Nc2ccc(Br)cc2)nc1NCCCN [Example 35, N4-(3-aminopropyl)-N2-(4-bromophenyl)-5-methylpyrimidine-2,4-diamine] | –
28 | 7.72 | NCCCNc1nc(Nc2ccc(C3CCNCC3)cc2)ncc1Cl [Example 26, N4-(3-aminopropyl)-5-chloro-N2-(4-(piperidine-4-yl)phenyl)pyrimidine-2,4-diamine] | –
29 | 6.13 | CCCCCCCCc1ccc(Nc2ncc(Cl)c(NCCCN)n2)cc1 [Example 5, N4-(3-aminopropyl)-5-chloro-N2-(4-octylphenyl)pyrimidine-2,4-diamine] | –
30 | 6.80 | Cc1cnc(Nc2ccc3c(c2)CCCC3)nc1NCCCN [Example 30, N4-(3-aminopropyl)-5-methyl-N2-(5,6,7,8-tetrahydronaphthalene-2-yl)pyrimidine-2,4-diamine] | –
31 | 7.10 | CCCCCc1ccc(Nc2ncc(Cl)c(NCCCN)n2)cc1 [Example 4, N4-(3-aminopropyl)-5-chloro-N2-(4-pentylphenyl)pyrimidine-2,4-diamine] | –
32 | 7.59 | NCCCNc1nc(Nc2cc(Cl)cc(Cl)c2)ncc1Cl [Example 2, N4-(3-aminopropyl)-5-chloro-N2-(3,5-dichlorophenyl)pyrimidine-2,4-diamine] | –
33 | 5.96 | NCCCNc1ccnc(Nc2ccc(Cl)cc2)n1 [Comparative Example 4, N4-(3-aminopropyl)-N2-(4-chlorophenyl)pyrimidine-2,4-diamine, reference compound] | –
34 | 7.12 | Cc1cnc(Nc2ccc(Cl)c(Cl)c2)nc1NCCCN [Example 39, N4-(3-aminopropyl)-N2-(3,4-dichlorophenyl)-5-methylpyrimidine-2,4-diamine] | –
